From patent publication US11535632B2, “Solid forms of an S1P-receptor modulator” (ESCAPE Bio, Inc., priority 2019, dated 2022) come the findings set out here.

A short description of this data set: Water activity study. Format: physicochemical. Here is the method: About 15 mg of Form A and 15 mg of Form B were added to the saturated solutions of different water activities and equilibrated at 25° C. and 50° C. for 4 days, respectively. The resulting suspensions were filtered, and the solid parts (wet cake) were investigated by XRPD to determine the polymorph.
According to XRPD results, Form B was obtained in methanol/water with water activity (a.w.) ranging from 0.1 to 0.9 at 25° C., as shown in FIGS. 20A-20B. At 50° C., Form B was obtained in methanol/water with a.w. ≥0.2, whereas a mixture of Form A and Form B was obtained in a.w. […] The water activity of the binary solvent system was calculated based on UNIFAC method (UNIQUAC Functional-group Activity Coefficients).

As to `O=C(O)[C@H]1C[C@@H](N2CCc3oc(-c4ccc(OCc5ccc(Cl)cc5)cc4)nc3C2)C1` [Form B, (1s,3s)-3-(2-(4-((4-chlorobenzyl)oxy)phenyl)-6,7-dihydrooxazolo[4,5-c]pyridin-5(4H)-yl)cyclobutane-1-carboxylic acid], where the note is “25° C., methanol/water”, the “critical water activity between Form A and Form B” value is given as “less than 0.1”. Moreover, the “Relative stability of forms” value (ambient condition) was “more stable than Form A”.
